In patent publication US12617757B2, “Compounds and modules for inhibition of pre-miR-21 and their use in treatment of certain cancers” (University of Florida Research Foundation, Incorporated, priority 2019, dated 2026):
Read-outs that look alike come from different tables or passages of the source.

Experiments:
pre-miR-21 [1] = assay: Cellular Chem-CLIP / C-Chem-CLIP in MDA-MB-231 cells; assay type: cell-based, human; conditions: for enrichment of the pre-miR-21 transcript by Chem-CLIP: MDA-MB-231, RT-qPCR
Procedure: Cellular Chem-CLIP/C-Chem-CLIP. The MDA-MB-231 cells were grown to ˜70% confluency as monolayers in 60 mm dishes. The cells were treated with Chem-CLIP compounds (8 or 9) and/or non-cross-linking competitors (1 or 2) for 48 h. Total RNA was extracted using a Quick-RNA MiniPrep Kit (Zymo Research) per the manufacturer's protocol. Approximately 20-30 μg of total RNA was then incubated with 100 μL of streptavidin-agarose beads (Sigma-Aldrich) and shaken for 1 h at room temperature. The solution was removed beads washed six times with 1×PBS. The RNA bound to beads was released, purified, and used for RT-qPCR as previously described^23. Relative fold enrichment of the measured RNA before and after pulldown was measured using equation 3 (Eq. 3): Relative Fold Enrichment=2^−(ΔC^t^before pulldown−ΔC^t^after pulldown) (Eq. 3)
where “ΔCt before pulldown” is the difference between the Ct values for the RNA of interest and a housekeeping gene in total RNA from cells and “ΔCt after pulldown” is the difference between the Ct values for the RNA of interest and the same housekeeping gene in RNA after pulldown.

pre-miR-21 WT RNA [2] = assay: In vitro Chem-CLIP pulldown; assay type: binding
Procedure: In vitro Chemical Cross-linking and Isolation by Pull Down (Chem-CLIP) and Competitive Chemical Cross-linking and Isolation by Pull Down (C-Chem-CLIP). RPMI growth medium was heat inactivated at 95° C. for 15 min and then cooled to room temperature. Approximately 10,000 counts of ^32P 5′-end labeled miR-21 precursor hairpin RNA (pre-miR-21 WT) was folded in growth medium at 95° C. for 1 min. After cooling to room temperature, dilutions of Chem-CLIP probes 8 or 9^23 were added and incubated at 37° C. for 18 h. Alternatively, for C-Chem-CLIP, dilutions of competing non-cross-linking parent compounds, 1 or 2, were incubated with RNA for 1 h before addition of Chem-CLIP probe compounds. Streptavidin-agarose beads (Sigma-Aldrich) were then used to pulldown RNA. Samples were then washed with 1×PBS supplemented with 0.1% (v/v) Tween-20 and bound and unbound RNA radioactivity measured using a Beckman Coulter LS6500 Liquid Scintillation Counter as previously described^23.

pre-miR-21 [3] = assay: RT-qPCR of mature miR-21 and pre-miR-21 levels in MDA-MB-231 cells; assay type: cell-based, human; conditions: for effect on mature miR-21 levels / effect on pre-miR-21 levels: MDA-MB-231, RT-qPCR
Procedure: Cell culture compound treatment and transfection. For treatment with compounds, stocks in DMSO or water were diluted in growth media and added to cells for 24-72 h. For transfection of plasmid DNA to overexpress the miR-21 hairpin precursor in pcDNA3.1 (Addgene 21114) or pcDNA3-RNaseL (R. H. Silverman, Cleveland Clinic^24) in 24-well plates, Lipofectamine 2000 was used according to the manufacturer's protocol. After transfection, the medium was removed and replaced with growth medium containing compound prepared as described above. For transfection of a control (Santa Cruz Biotechnology: sc-37007) or RNase L targeting siRNA (Santa Cruz Biotechnology: sc-45965), Lipofectamine RNAiMAX Reagent was used for transfection of oligonucleotides, including 2′-5′ A4, according to the manufacturer's protocol.

pri-miR-21 RNA = assay: In vitro Ribo-SNAP; assay type: biochemical; conditions: dose responsive treatment
Procedure: In vitro Ribo-SNAP. The pri-miR-21 RNA (1 μM) was folded as described above. Dilutions of cleaver compounds (Bleomycin A5 or 10) were pre-activated by the addition of 1 eq Fe^2+ and added to the folded RNA in a total volume of 20 μL. After 30 min and 60 min, an additional equivalent of Fe^2+ was added and then the reaction mixtures were incubated at 37° C. overnight. After ethanol precipitation and quantification by Nanodrop, reverse transcription was performed using SuperScript™ III Reverse Transcriptase (ThermoFisher Scientific) per the manufacturer's protocol using a 5′ ^32P-labeled forward primer (˜10,000 counts). The A, T, G and C sequencing ladders were generated by using a ratio of ddNTP/dNTP of 3:1. The RNA was digested by the addition of RNase A and RNase H and incubated at 37° C. for 30 min. Then, an equal volume of Loading Buffer (95% […], 50 mM EDTA, 0.05% (w/v) bromophenol blue, 0.05% (w/v) xylene cyanol) was added to each reaction. The final mixture was resolved on a denaturing 15% polyacrylamide gel.

pri-miR-21 = assay: Ribo-SNAP-Map in MDA-MB-231 cells; assay type: cell-based, human
Procedure: Ribo-SNAP-Map. The MDA-MB-231 cells were grown in 100 mm dishes to ˜70% confluency and treated with cleaving compound (10) for 6 h. Total RNA was then extracted by treatment with TRIzol (ThermoFisher Scientific) and quantified by Nanodrop. Approximately 10 μg of total RNA was used for reverse transcription with a pri-miR-21 specific primer (5′-[…]-3′; 2 pmol) (SEQ ID NO: 12) using Superscript III (SSIII; Life Technologies). Approximately of 10 μg RNA with 2 pmol of gene-specific primer and 1 μL 10 mM dNTP Mix in a total volume of 13 μL was incubated at 65° C. for 5 min and then placed in ice for 5 min. Next, 4 μL 5×First-Strand Buffer, 1 μL 0.1 M DTT, 1 μL RNaseOUT and 1 μL SuperScript™ III RT were added and the mixture was incubated at 50° C. for 1 h, followed by 85° C. for 10 min. After digestion with RNase A and RNase H, the remaining cDNA was purified using RNAClean XP beads (Beckman Coulter; 1.8 volumes of beads and 3 volumes of isopropanol).
The purified cDNA was ligated with a 3′ adapter (5′ Phosphate NNN-[…]-3′ Biotin) (SEQ ID NO: 13) by T4 RNA ligase 1 (New England BioLabs; NEB) following the manufacturer's recommended protocol (2 μL 10×T4 RNA ligase buffer, 1 μL of 1 mM ATP, 10 μL 50% PEG 8000, 5 μL cDNA, 1 μL of 20 μM ssDNA adaptor, and 1 μL of T4 RNA ligase). Then, the cDNA ligated to the adaptor was purified with RNAClean XP beads as described above. PCR amplification was performed with the ligated cDNA by using Phusion polymerase (NEB) with cycling conditions of 98° C. for 20 s, 64° C. for 20 s and 72° C. for 90 s and the following forward (5′-[…]-3′) (SEQ ID NO: 14) and reverse (5′-[…]-3′) (SEQ ID NO: 15) primers. The PCR products were separated on a denaturing 15% polyacrylamide gel and the target band was excised from the gel and ethanol precipitated. The purified DNA was ligated into a vector using NEB's PCR Cloning Kit per the manufacturer's protocol. Antibiotic-resistant colonies were selected and subjected to Sanger sequencing by Genewiz. The cleavage sites and percentage were determined by comparing the cleaver treated samples and non-treated samples.

pre-miR-210 = assay: RT-qPCR of pre-miR-210 and miR-210 in hypoxic MDA-MB-231 cells; assay type: cell-based, human; conditions: hypoxic MDA-MB-231, RT-qPCR
pre-miR-21 WT = assay: Microscale thermophoresis (MST) binding to pre-miR-21 WT; conditions: read-out: Kd, binding of the pre-miR-21 RNA Dicer site
Procedure: (§1) Microscale Thermophoresis (MST) Binding Measurements. MST fluorescent measurements were performed on a Monolith NT.115 system (NanoTemper Technologies) using the fluorescence of a miR-21 hairpin (A+U Bulge): (5′ Cy5-[…]-3′) (SEQ ID NO: 1) or a miR-21 base paired control (5′ Cy5-[…]-3′) (SEQ ID NO: 2) which were purchased from IDT with RNase-free HPLC purification and used without further purification. The RNA (5 nM) was diluted in 1×MST Buffer (8 mM Na2HPO4, 190 mM NaCl, 1 mM EDTA, and 0.05% (v/v) Tween-20) and folded by heating at 60° C. for 5 min, and slowly cooling to room temperature. Compounds 1 and 2 were diluted in 1×MST Buffer, followed by 1:3 dilutions in 1×MST Buffer containing 5 nM RNA. […] Fluorescence measurements (Ex: 605-645 nm, Em: 680-685 nm) were performed at 10% LED and 80% MST power, with a Laser-On time of 30 s and Laser-Off time of 5 s. The data were analyzed by thermophoresis analysis and fitted by the quadratic binding equation in MST analysis software (NanoTemper Technologies). Dissociation constants were then determined by curve fitting using a single-site model. Normalized MST signal was calculated by normalizing the fluorescent signals using the MST data of 1 binding to pre-miR-21 WT with the lowest signal as 0 and the highest fluorescent signal as 1.

pre-miR-21 BP = assay: MST binding to pre-miR-21 BP (base paired control); conditions: addition of 100 μM of compound
Procedure: as §1

pre-miR-21 WT RNA [4] = assay: In vitro Dicer processing of pre-miR-21 WT; assay type: biochemical
Description: (§2) In vitro Dicer processing. […] Cleavage products were resolved on a denaturing 15% polyacrylamide gel, which was imaged using a Molecular Dynamics Typhoon phosphorimager and quantified with Bio-Rad's QuantityOne software, normalizing to full length RNA.

pre-miR-21 BP RNA = assay: In vitro Dicer processing of pre-miR-21 BP; assay type: biochemical
Description: as §2

## CC(=O)N(CCNC(=O)CCCc1ccc(N(CCCl)CCCl)cc1)CC(=O)N(CC(=O)N(CCNC(=O)CCCCC1SCC2NC(=O)NC21)CC(N)=O)Cc1cn(CCCNC(=O)CCCOc2ccc(-c3nc4cc(-c5ccc(N6CCN(C)CC6)cc5)ccc4[nH]3)cc2)nn1 (stereo not drawn) [Compound 8]
pre-miR-21 [1]; 10 μM, MDA-MB-231
  enrichment of pre-miR-21 by Chem-CLIP pulldown: ~2.5 fold
pre-miR-21 [1]; 10 μM
  enrichment of the pre-miR-21 transcript by Chem-CLIP: enrichment for the pre-miR-21 transcript
pre-miR-21 WT RNA [2]
  pulldown of 32P 5′-end labeled pre-miR-21 WT RNA: greater enrichment of the RNA compared to 9

## C#CCN(CC(=O)N(CCC)CC(=O)N(CCC)CC(=O)N(CCC)CC(=O)N(CC#C)CC(=O)NCCOCCOCCOCCOc1ccc(C=C2SC(Nc3ccccc3)=C(C(=O)OCC)C2=O)cc1O)C(C)=O [Compound 6]
pre-miR-21 [3]
  effect on mature miR-21 levels: inactive

## C#CCN(CC(=O)N(CCNC(=O)CCCCC1SCC2NC(=O)NC21)CC(N)=O)C(=O)CN(CCNC(=O)CCCc1ccc(N(CCCl)CCCl)cc1)C(C)=O (stereo not drawn) [Compound 9, reference compound]
pre-miR-21 [1]; 10 μM
  enrichment of the pre-miR-21 transcript by Chem-CLIP: no enrichment

## CCCN(CC(=O)N(CCC)CC(=O)N(CCC)CC(=O)N(CC(=O)NCCCCNCCCNC(=O)c1csc(-c2csc(CCNC(=O)C(NC(=O)C(C)[C@H](O)C(C)NC(=O)C(NC(=O)c3nc(C(CC(N)=O)NC[C@H](N)C(N)=O)nc(N)c3C)[C@@H](OC3OC(CO)C(O)C(O)C3OC3OC(CO)C(O)C(OC(N)=O)C3O)c3c[nH]cn3)C(C)O)n2)n1)Cc1cn(CCCNC(=O)CCCOc2ccc(-c3nc4cc(-c5ccc(N6CCN(C)CC6)cc5)ccc4[nH]3)cc2)nn1)C(=O)CN(Cc1cn(CCCNC(=O)CCCOc2ccc(-c3nc4cc(-c5ccc(N6CCN(C)CC6)cc5)ccc4[nH]3)cc2)nn1)C(C)=O (stereo partly drawn) [Compound 10]
pre-miR-21 [3]
  effect on mature miR-21 levels: decreases mature miR-21 levels
  effect on pre-miR-21 levels: cleaved and decreased pre-miR-21 levels
pri-miR-21 RNA
  RT stops induced in pri-miR-21: induced an RT stop at the indicated sites
pri-miR-21; 3/21 reads
  reads that stop at the second A (3′): 14%
pri-miR-21; 6/21 reads
  reads that stop at the third A (3′): 29%
pri-miR-21; 12/21 reads
  reads that stop at the first C (5′): 57%

## CCOC(=O)C1=C(Nc2ccccc2)SC(=Cc2ccc(OCCOCCOCCOCCNC(=O)CCCOc3cccc(-c4nc5ccc(-c6nc7cc(N8CCN(C)CC8)ccc7[nH]6)cc5[nH]4)c3)c(O)c2)C1=O [Compound 25]
pre-miR-210
  effect on pre-miR-210: Cleavage of pre-miR-210

## CCCN(CC(=O)N(CCC)CC(=O)N(CCC)CC(=O)N(CC(=O)NCCOCCOCCOCCOc1cc(C=C2SC(Nc3ccccc3)=C(C(=O)OCC)C2=O)ccc1O)Cc1cn(CCCNC(=O)CCCOc2ccc(-c3nc4cc(-c5ccc(N6CCN(C)CC6)cc5)ccc4[nH]3)cc2)nn1)C(=O)CN(Cc1cn(CCCNC(=O)CCCOc2ccc(-c3nc4cc(-c5ccc(N6CCN(C)CC6)cc5)ccc4[nH]3)cc2)nn1)C(C)=O [Compound 7]
pre-miR-21 [3]
  effect on mature miR-21 levels: decreased miR-21 levels
  effect on pre-miR-21 levels: increased pre-miR-21 levels
pre-miR-21 [3]; listed as Formula 7
  effect on mature miR-21 levels: did not have enhanced activity over Formula 2

## CN1CCN(c2ccc3nc(-c4ccc5nc(-c6cccc(OCCCC(=O)NCCCN=[N+]=[N-])c6)[nH]c5c4)[nH]c3c2)CC1 [Compound 26]
pre-miR-210
  effect on mature miR-210 levels: inhibits mature miR-210 levels
  effect on pre-miR-210: boosts levels of pre-miR-21

## CN1CCN(c2ccc(-c3ccc4[nH]c(-c5ccc(OCCCC(=O)NCCCN=[N+]=[N-])cc5)nc4c3)cc2)CC1 [Compound 1]
pre-miR-21 WT
  Kd: 20 µM
pre-miR-21 BP
  saturation of the binding isotherm: No saturation of the binding isotherm was observed
pre-miR-21 WT RNA [4]
  inhibition of / protection from Dicer processing: Protection with compound is observed at U23 (boxes marked with arrows) and U26 and U27
pre-miR-21 WT RNA [4]; listed as Formula 1
  inhibition of / protection from Dicer processing: inhibited in vitro Dicer processing
pre-miR-21 BP RNA
  protection from Dicer processing: Protection with compound is observed at U26 and U27
pre-miR-21 [3]; 10 μM, MDA-MB-231
  increase of pre-miR-21 levels: 1.3 fold
  inhibition of miR-21 production: 50%
pre-miR-21 [3]
  effect on mature miR-21 levels: inhibits mature miR-21-5p biogenesis
  effect on pre-miR-21 levels: boosts levels of pre-miR-21
pre-miR-21 [1]; MDA-MB-231, versus probe 8
  competition of Chem-CLIP enrichment (C-Chem-CLIP): enrichment is depleted
